Reference: patent publication EP0239801B1, “Plant cells resistant to herbicidal glutamine synthetase inhibitors” (THE GENERAL HOSPITAL CORPORATION, priority 1986, dated 1987)
Where two headings read alike, the source gives them in different places.

Key:
[1] = tested on: GS; assay: GS activity of cell extracts in the presence of various amounts of phosphinothricin; assay type: biochemical, alfalfa; conditions: both cell types
Protocol: When the protein patterns of crude cell extracts of the susceptible and resistant cell lines were compared by SDS-polyacrylamide gel electrophoresis, the overproduction of a polypeptide in the molecular weight range 40-42 KD could be observed in the PPT-resistant cell line. Purified GS of alfalfa has the same molecular weight. The enzyme activity of the cell extracts was determined in parallel. The specific GS-activity in the resistant cells was 5-10 fold higher than in wild-type cells. The specific activity of GS in the PPT-resistant cell lines is in the same order of magnitude as in root nodule tissue of alfalfa, which, as all nodule tissues of efficiently dinitrogen fixing legumes, has high GS-activity.

[2] = target: glutamine synthetase from E. coli (Escherichia coli, UniProt P0A9C5); conditions: competitive inhibitor; cited from earlier work
[3] = target: pea leaf glutamine synthetase; conditions: cited from earlier work
[4] = tested on: dicotyledonous weeds; conditions: field trials in West Germany, Spain, South Africa, U.S.A. and Japan; Schwerdtle 1981; cited from earlier work
[5] = tested on: monocotyledonous weeds; conditions: field trials; Schwerdtle 1981; cited from earlier work
[6] = tested on: variant PPT resistant alfalfa cell line; assay: Growth of suspension cultures (packed cell volume), selected resistant cells; assay type: cell-based
Protocol: The amide nitrogen of glutamine provides the source of nitrogen for many biosynthetic reactions, indicating a central role for GS in nitrogen metabolism.
Selection is carried out in an appropriate culture medium by cultivating plant cells in the presence of stepwise increases of the herbicidal GS-inhibitor in the medium. After a given period of time has elapsed, such as, for example, a few weeks to several months, it is possible to select a cell population which is several-fold more resistant to the herbicidal GS-inhibitor than the original plant cells. For example, when the cells are alfalfa and the inhibitor is PPT, it has been possible to obtain a PPT-resistant alfalfa cell line after one year of stepwise PPT increases, which line was 20-fold more resistant to PPT than the original line. […] This was never possible by plating wild-type cells.
An alfalfa cell line which is able to grow in the presence of 3 mM L-phosphinothricin in the culture medium was selected. Alfalfa was chosen since it is one of the model plants in which the regeneration of a whole plant from single isolated cells or protoplasts can be readily achieved.
The selection of the phosphinothricin resistant alfalfa line was done by stepwise increase of the inhibitor concentration in the liquid culture medium. […]

glutamine synthetase from E. coli, sequence (P0A9C5 2-469): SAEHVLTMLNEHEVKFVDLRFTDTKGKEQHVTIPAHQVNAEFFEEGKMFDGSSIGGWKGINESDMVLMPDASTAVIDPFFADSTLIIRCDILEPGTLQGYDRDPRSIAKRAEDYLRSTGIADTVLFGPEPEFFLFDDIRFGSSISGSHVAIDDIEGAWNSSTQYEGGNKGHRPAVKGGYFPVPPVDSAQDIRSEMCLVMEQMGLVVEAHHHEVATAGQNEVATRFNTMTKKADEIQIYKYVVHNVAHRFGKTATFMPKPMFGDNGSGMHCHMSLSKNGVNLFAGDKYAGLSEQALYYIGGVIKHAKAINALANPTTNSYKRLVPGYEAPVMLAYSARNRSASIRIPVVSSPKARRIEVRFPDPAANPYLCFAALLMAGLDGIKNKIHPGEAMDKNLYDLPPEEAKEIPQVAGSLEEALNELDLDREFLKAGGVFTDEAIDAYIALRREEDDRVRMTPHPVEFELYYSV

CP(=O)(O)CC[C@H](N)C(=O)O [PPT, phosphinothricin]
enzyme inhibition in wild-type versus resistant cell extracts [1]: same degree of enzyme inhibition
Ki [2]: 5.9 µM
Ki ([3]; mixed competitive inhibitor, Leason et al. 1982, read-out: apparent Ki value): 73 µM
weed control [4]: well controlled
weed control [5]: somewhat higher quantities were needed for good control

CS(=N)(=O)CCC(N)C(=O)O (stereo not shown) [MSO, methionine sulfoximime]
Ki ([3]; read-out: Ki value): 160 µM

CP(=O)(O)CC[C@H](N)C(=O)O [L-phosphinothricin]
concentration in the culture medium in the presence of which the selected cell line is able to grow [6]: 3 mM
